In patent publication US11226337B2, “Chemoproteomic profiling of protein electrophilic and oxidative post-translational modifications” (Zenagem, LLC, priority 2017, dated 2022):

Columns and labels:
[1] = target: T1, AMD1 (Homo sapiens, UniProt P17707); assay: gel-based RP-ABPP of transfected HEK293T cells; type: cell-based; settings: transfected HEK293T cells vs mock
T1 construct: Full-length genes encoding three probe 1- and one probe 2-targeted proteins were amplified from a cDNA library; expressed in transfected cells; host or cells: HEK293T
T1 sequence (P17707 68-334 limits assumed): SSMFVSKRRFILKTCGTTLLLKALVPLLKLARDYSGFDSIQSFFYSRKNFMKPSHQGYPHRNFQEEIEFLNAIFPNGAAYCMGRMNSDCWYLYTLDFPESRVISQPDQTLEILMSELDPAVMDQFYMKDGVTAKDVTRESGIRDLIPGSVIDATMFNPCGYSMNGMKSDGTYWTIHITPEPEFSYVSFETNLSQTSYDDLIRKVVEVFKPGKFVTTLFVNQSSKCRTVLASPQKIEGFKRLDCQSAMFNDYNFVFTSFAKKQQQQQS
T1 sequence (P17707 1-67 limits assumed): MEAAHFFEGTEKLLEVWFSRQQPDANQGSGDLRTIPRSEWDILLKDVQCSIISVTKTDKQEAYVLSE
Procedure: Soluble proteomes from treated cells were diluted to 1 mg/mL. To each sample (50 μL), a freshly prepared “click” or CuAAC reagent mixture (6 μL) containing 0.1 mM tris(benzyltriazolylmethyl)amine (TBTA) (3 μL/sample, 1.7 mM in 4:1 DMSO:t-BuOH), 1 mM CuSO4 (1 μL/sample, 50 mM in H2O), 25 μM azide-rhodamine (1 μL/sample, 1.25 mM in DMSO), and freshly prepared 1 mM tris(2-carboxyethyl)phosphine (TCEP) (1 μL/sample, 50 mM in PBS or H2O) was added to conjugate the fluorophore to probe-labelled proteins. […] Upon addition of the click mixture, each reaction was immediately mixed by vortexing and then allowed to react at ambient temperature for 1 hour before quenching the reactions with SDS loading buffer (4× stock, 17 μL). Proteins (˜25 μg total protein loaded per gel lane) were resolved by SDS-PAGE (10% acrylamide) and visualized by in-gel fluorescence scanning on a Hitachi FMBIO-II or BioRad ChemiDoc MP flatbed fluorescence scanner. […]
After scanning fluorescence, that same gel was transferred to nitrocellulose membrane in Towbin buffer, the membrane was blocked for ˜1 hour at ambient temperature with 5% nonfat dry milk (w/v) in Tris-buffered saline with Tween 20 (TBST) and incubated with primary antibodies in the same solution overnight at 4° C. […]

[2] = target: T2, GLB1 Betagalactosidase (P16278) (Homo sapiens, UniProt P16278); assay: SILAC RP-ABPP; type: cell-based; settings: SILAC H/L
T2 construct: shared by both the endogenous and recombinant forms of these proteins; endogenous in cells; host or cells: HEK293T and MDA-MB-231
T2 sequence (P16278 29-677): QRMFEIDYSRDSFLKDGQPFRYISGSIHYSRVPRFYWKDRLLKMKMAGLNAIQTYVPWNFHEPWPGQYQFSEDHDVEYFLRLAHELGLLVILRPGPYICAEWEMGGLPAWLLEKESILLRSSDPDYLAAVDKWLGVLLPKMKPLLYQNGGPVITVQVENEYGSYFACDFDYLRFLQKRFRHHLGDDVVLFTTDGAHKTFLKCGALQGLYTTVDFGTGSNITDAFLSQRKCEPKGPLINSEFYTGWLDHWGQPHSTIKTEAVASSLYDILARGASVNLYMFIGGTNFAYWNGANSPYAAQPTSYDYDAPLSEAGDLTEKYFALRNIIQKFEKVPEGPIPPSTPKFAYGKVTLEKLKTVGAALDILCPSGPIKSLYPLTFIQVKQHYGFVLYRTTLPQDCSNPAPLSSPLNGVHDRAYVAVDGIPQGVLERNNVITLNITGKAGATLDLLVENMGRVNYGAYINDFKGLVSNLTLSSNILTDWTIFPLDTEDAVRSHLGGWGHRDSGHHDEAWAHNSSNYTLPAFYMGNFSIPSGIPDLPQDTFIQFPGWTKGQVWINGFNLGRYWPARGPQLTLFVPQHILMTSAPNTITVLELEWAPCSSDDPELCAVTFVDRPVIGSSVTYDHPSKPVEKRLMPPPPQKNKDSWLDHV

SMILES | probe labeling of recombinant protein, in-gel fluorescence [1] | enrichment ratioavg ([2]; probe 1 3 mM 0.5 h vs probe 3, HEK293T) | competition ratioavg ([2]; probe 1 vs probe 1+10x probe 3, HEK293T) | enrichment ratioavg ([2]; probe 2 1 mM 0.5 h vs probe 4, MDA-MB-231) | competition ratioavg ([2]; probe 2 vs probe 2+10x probe 4, MDA-MB-231)
C#CCNN.Cl [probe 1, prop-2-yn-1-ylhydrazine hydrochloride] | reacted with both probes 1 and 2 | 12 | 3 |  | 
C#CCCNC(=O)c1ccc(NN)cc1.Cl [probe 2, N-(but-3-yn-1-yl)-4-hydrazinylbenzamide hydrochloride] | reacted with both probes 1 and 2 |  |  | 6 | 2
